Data: patent publication US5314932A, “Antifouling coating and method for using same” (priority 1993, dated 1994)

How the values were obtained:
nauplius stage larvae = test: Toxicity Assay for Nauplius Larvae (naupliar toxicity); settings: for Naupliar Toxicity (LD50): lethal dose killing 50 percent of naupliar stage larvae, 100 kDa-filtered seawater, 28° C., approx. 15 h light and 9 h darkness, 1440 min; for LD50 compared with TBT, digoxigenin, and digoxin: nauplius stage larvae, comparison with known antifouling agents
Experimental: (§1) Adult individuals of the acorn barnacle Balanus amphritrite Darwin were collected from the Duke University Marine Laboratory seawall in Beaufort, N.C. Collected specimens were crushed, and the nauplius stage larvae released therefrom were cultured to cyprid stage for cyprid-state assays according to the methods of Rittschof et al., J. Exp. Mar. Biol. Ecol. 82:131-146 (1984).
Toxicity assays were conducted by adding nauplius stage larvae to Falcon 50×9 mm polystyrene Petri dishes containing 5 ml of 100 kDa-filteredseawater. Experimental dishes received a dose of bufalin, cinobufatalin, TBT, digoxigenin, or digoxin. Doses receiving no test compound served as negative controls. The dishes were incubated at 28° C. under light for approximately 15 hours and in darkness for approximately 9 hours.
After incubation, the dishes were examined under a dissecting microscope to determine whether the larvae were alive or dead. […] The number of dead and living larvae was counted and recorded.
Data for toxicity assays performed on nauplius stage larvae is summarized in Table 1, which lists the lethal dose for each compound required to kill 50 percent of naupliar stage larvae in a sample (LD50).

cyprid stage larvae = format: in vivo, acorn barnacle Balanus amphritrite Darwin; settings: for EC50 compared with TBT, digoxigenin, and digoxin: cyprid stage larvae settlement, comparison in words; for Cyprid Settlement (ED50): dose which prevents settlement of 50 percent of cyprid stage larvae (EC50), three-day old cyprids, 100 kDa-filtered seawater (approx. 35 ppt), 28° C., approx. 15 h light and 9 h darkness
Experimental: as §1
Settlement assays were performed as previously described by Rittschof et al., J. Chem. Ecol. 11:551-563 (1985). Three-day old cyprid larvae were added to Falcon 50×9 mm polystyrene petri dishes. Each dish contained 5 ml of 100 kDa-filtered seawater (approximately 35 ppt salinity). […] Doses were varied in an effort to determine inhibition levels. Dishes receiving no test compound served as negative controls. The number of replicate dishes used in each assay ranged from 2 to 4, depending on larval availability. The dishes were incubated at 28° C. under light for approximately 15 hours and in darkness for approximately 9 hours.
After incubation, the dishes were examined under a dissecting microscope to determine whether larvae were still alive. The larvae were then euthanized by the addition of several drops of 10 percent formalin. The numbers of attached and unattached larvae were then counted.
Settlement was calculated as the percentage of total larvae attached to the dish. Differences in the rate of settlement for test dishes versus controls were assessed for statistical significance through the use of a G test for independence described by Sokal et al., Biometry (Freeman & Co., San Francisco 1981).

SMILES: C[C@]12CC[C@H](O)C[C@H]1CC[C@@H]1[C@@H]2CC[C@]2(C)[C@@H](c3ccc(=O)oc3)CC[C@]12O [Bufalin, 3,14-dihydroxybufa-20,22 dienolide]
- Naupliar Toxicity (LD50) (nauplius stage larvae): 27 ng/L
- LD50 compared with TBT, digoxigenin, and digoxin (nauplius stage larvae): much lower LD50 values than known antifouling agents TBT, digoxigenin, and digoxin
- EC50 compared with TBT, digoxigenin, and digoxin (cyprid stage larvae): much lower EC50 values than TBT, digoxigenin, and digoxin
- Cyprid Settlement (ED50) (cyprid stage larvae): 19 ng/L

SMILES: CC(=O)O[C@H]1[C@H]2O[C@]23[C@@H]2CC[C@@H]4C[C@@H](O)CC[C@]4(C)[C@H]2CC[C@]3(C)[C@H]1c1ccc(=O)oc1 [Cinobufagin, 16-(acetyloxy)-14,15-epoxy-3 hydroxybufa-20,22-enolide]
- Naupliar Toxicity (LD50) (nauplius stage larvae): 37 ng/L
- LD50 compared with TBT, digoxigenin, and digoxin (nauplius stage larvae): much lower LD50 values than known antifouling agents TBT, digoxigenin, and digoxin
- EC50 compared with TBT, digoxigenin, and digoxin (cyprid stage larvae): much lower EC50 values than TBT, digoxigenin, and digoxin
- Cyprid Settlement (ED50) (cyprid stage larvae): 162 ng/L

SMILES: CC(=O)O[C@H]1[C@H]2O[C@]23[C@@H]2CC[C@]4(O)C[C@@H](O)CC[C@]4(C)[C@H]2CC[C@]3(C)[C@H]1c1ccc(=O)oc1 [Cinobufotalin, 16-(acetyloxy)-14,15-epoxy-3,5dihydroxybufa-20,22-enolide]
- Naupliar Toxicity (LD50) (nauplius stage larvae): 837 ng/L
- LD50 compared with TBT, digoxigenin, and digoxin (nauplius stage larvae): much lower LD50 values than known antifouling agents TBT, digoxigenin, and digoxin
- EC50 compared with TBT, digoxigenin, and digoxin (cyprid stage larvae): much lower EC50 values than TBT, digoxigenin, and digoxin
- Cyprid Settlement (ED50) (cyprid stage larvae): 2,600 ng/L

SMILES: C[C@]12CC[C@H](O)C[C@H]1CC[C@@H]1[C@@H]2C[C@@H](O)[C@]2(C)[C@@H](C3=CC(=O)OC3)CC[C@]12O [Digoxigenin, reference compound]
- Naupliar Toxicity (LD50) (nauplius stage larvae): 3,720 ng/L
- Cyprid Settlement (ED50) (cyprid stage larvae): > 50,000 ng/L

SMILES: C[C@H]1O[C@@H](O[C@H]2[C@@H](O)C[C@H](O[C@H]3[C@@H](O)C[C@H](O[C@H]4CC[C@@]5(C)[C@H](CC[C@@H]6[C@@H]5C[C@@H](O)[C@]5(C)[C@@H](C7=CC(=O)OC7)CC[C@]65O)C4)O[C@@H]3C)O[C@@H]2C)C[C@H](O)[C@@H]1O [Digoxin, reference compound]
- Naupliar Toxicity (LD50) (nauplius stage larvae): 5,450 ng/L
- Cyprid Settlement (ED50) (cyprid stage larvae): 6,300 ng/L

SMILES: CCC[CH2][Sn]([Cl])([CH2]CCC)[CH2]CCC [TBT Chloride, tri-n-butyl tin chloride, reference compound]
- Naupliar Toxicity (LD50) (nauplius stage larvae): ~3,400 ng/L
